# Assay results: patent US4578376A, “Pharmaceutical compositions for the treatment of osteopathias” (Istituto Gentili S.p.A., priority 1981, dated 1986)
# Entries after “also recorded” stand apart in the source; their conditions may differ. Counter-ions that a name gives are not always drawn. Like-named read-outs stand apart in the source and are kept apart here.
# Key:
# calvaria cells = experiment: cells; assay type: cell-based, Wistar rats
# Method: Cellular culture; the cells are first cultured in accordance with the method reported by Fast, et al., (Biochemical Journal, 172, 97-107 (1978). In short, calvaria removed from Wistar rats one day old has been digested with collagenase. The freed cells have been placed on plates in a concentration of […] per ml of medium in Petri dishes of 3.5 cm diameter containing 1.5 ml of medium in dishes of 1.6 cm diameter containing 0.5 ml of medium. The cells have been cultivated in the essential minimum medium containing 10% of fetal calf serum in an atmophere of 5% CO2 at 37° C. up to the seventh or eighth day. The diphosphonates have been added on the first day up to the end of the experiment.
# The cells have been counted with a Coulter counter after having been freed from the dishes by digestion with a mixture of collagenase and trypsin. On the seventh day, the mixture has been changed and the cells have been incubated for sixteen hours. The so obtained lactate during this period has been measured according to the method of Fast, et al.
# [1] = Toxicity (DL50) in Swiss mice; assay type: in vivo, both male and female; conditions: mouse, in vivo, Swiss mice male and female
# From the text: (§1) In vivo, the degree of toxicity of AHEDP has been determined in Swiss mice, both male and female by various routes of administration and by comparison with some of the best known and used diphosphonates.
# [2] = no APD clinical test described in the patent; cited from earlier work
# bone reabsorption = experiment: Bone reabsorption and in vivo calcification (mineral density in the tibia metaphysis, body weight); parameters: species or system Wistar rats
# Method: Groups of five Wistar rats of weight between 180 and 200 grams have been treated for seven days with 0.01, 0.1, 1.0 and 10 mg P/kg of AHEDP or with a physiological solution by the subcutaneous route. The animals have been fed with Altromine 1314 containing 1.1 gram per 100 grams of calcium, 1.2 grams per 100 grams P and 250 IU per 100 grams of Vitamin D3. On the eighth day, the animals were killed and the tibia bones are removed and fixed in 50% ethanol. The tibia bones were then prepared for the histological examination and sections of 70-80μ thickness have been prepared for the microradiological study. This procedure has permitted an estimate of the mineral density in the metaphysis (Schenk, et al. Calc. Tiss. Res. 11, 196-214, 1973).
# Swiss mice = experiment: Toxicity (DL50) in Swiss mice; assay type: in vivo, both male and female
# From the text: as §1
# [3] = system: demineralizing osteopathias, characterized by a high rate of bone reabsorption; experiment: Clinical study: metabolism of phosphorus and calcium, indexes of bone reabsorption; assay type: in vivo
# From the text: In view of the favorable pharmacological and toxicological results, the substance, AHEDP, has been tested clinically. The study deals with the effects on the metabolism of phosphorus and calcium of the new diphosphonate according to the present invention used in the treatment of demineralizing osteopathias, characterized by a high rate of bone reabsorption.
# (§2) Six individuals affected by the bone disease called Paget's condition, that is three men and three women of age between 52 and 68; three individuals affected by metastatic osteolysis, resulting from mammary carcinoma, that is three women between age 42 and 59 years old.
# (§3) In eight cases, that is five individuals affected by Paget's disease and three individuals affected by osteolysis, the treatment has been carried out for fifteen days (in one of the cases of the individuals affected by Paget's disease, treatment continued for an additional fifteen days of therapy with a higher dosage); in the ninth case of the individual affected by Paget's disease, the treatment was continued for thirty days.
# (§4) The first four cases, that is two individuals affected by Paget's disease and two individuals affected by osteolysis, have received dosage of AHEDP of 5 mg daily by the intravenous route (slow infusion); in the fifth case, the individual affected by Paget's disease, received a dose of 10 mg daily for fifteen days and then 20 mg daily for an additional period of fifteen days. Three other cases, that is two individuals affected by Paget's disease and one individual affected by osteolysis have been administered doses of 20 mg daily for fifteen days. The ninth individual affected by Paget's disease, has been treated with doses of 40 mg daily for 30 days.
# (§5) Several parameters have been studied prior to the treatment, during the treatment and at the end of the treatment with respect to the metabolism of phosphorus and calcium and the tolerability of the substance.
# calcemia, phosphatemia, alkaline phosphatasemia, plasmatic PGE2, plasmatic iPTH, calciuria, phosphaturia, hydroxyprolinuria, cyclic nephrogenic AMP.
# [4] = Clinical study: tolerability; assay type: in vivo
# From the text: as §2, §3, §4, §5
# Hemochromocytometric examination, proteinemia, glycemia, azotemia, creatininemia, transaminasemia, immunoglobulin.
# Solubility = assay type: physicochemical
# [5] = solutions, very low concentrations; cited from earlier work
# [6] = oral route or systemic route; cited from earlier work
# Toxicity (DL50) in rats = conditions: rat, in vivo, iv; I.v., rats (footnote *)
# [7] = Rattus norvegicus, read-out: No. of Cells, % of control ± E.S.
smiles,measurement,setting,value
"NCCC(O)(P(=O)([O-])O)P(=O)([O-])O.[Na+].[Na+] [APD, 3-Amino-1-hydroxypropane-1,1-diphosphonic acid disodium salt]",activity at 2.5 µM,calvaria cells; [7],90.8 ± 2.1%
same,activity at 25 µM,calvaria cells; [7],64.9 ± 4.1%
same,activity at 250 µM,calvaria cells; [7],0%
same,LD50,"[1]; ip, I.p.",190 mg/kg
same,LD50,"[1]; iv, I.v.",45 mg/kg
same,LD50,"[1]; po, OS (orally)",625 mg/kg
same,alterations in body temperature and hematic crasia (comparison analog),[2],causes substantial alterations in the parameters discussed hereinabove
"NCCCCCC(O)(P(=O)(O)O)P(=O)(O)O [AHEDP, 6-amino-1-hydroxyhexane-1,1-diphosphonic acid]",effect on the number of cells (in words),calvaria cells; 250 μM,"some reductions, although slightly in the number of cells"
same,effect on the production of the lactate (in words),calvaria cells; 250 μM,increase in the production of the lactate
same,activity at 0.25 µM,"calvaria cells; Rattus norvegicus, 0.25 μM, read-out: No. of Cells, % of control ± E.S.",96.6 ± 1.7%
same,activity at 2.5 µM,"calvaria cells; Rattus norvegicus, 2.5 μM, * = significance with respect to the control (APD), read-out: No. of Cells, % of control ± E.S.",95.7 ± 7.8%
same,activity at 25 µM,"calvaria cells; Rattus norvegicus, 25 μM, * = significance with respect to the control (APD), read-out: No. of Cells, % of control ± E.S.",104 ± 2.1%
same,activity at 250 µM,"calvaria cells; Rattus norvegicus, 250 μM, * = significance with respect to the control (AHEDP), read-out: No. of Cells, % of control ± E.S.",88.4 ± 1.5%
same,"cellular toxicity, times less than APD",calvaria cells; compared with the analog APD,about 100 times less
same,effect on the cellular behavior,calvaria cells; concentrations lower than 250 μM,no negative effect is noted on the cellular behavior
same,density of the bone,"bone reabsorption; 0.01 mg P/kg, subcutaneous, seven days",no effect on the density of the bone
same,inhibition of the bone reabsorption,bone reabsorption; 0.1 mg and particularly 1 mg P/kg,a clear inhibition of the bone reabsorption
same,density of the metaphyses,"bone reabsorption; 0.1 mg and particularly 1 mg P/kg, subcutaneous, seven days",an increase in the density of the metaphyses
same,influence on the body weight,"bone reabsorption; 0.01, 0.1, 1.0 mg P/kg, subcutaneous, seven days",No treatment has shown any influence on the body weight
same,influence on the body weight,"bone reabsorption; 10 mg P/kg, subcutaneous, seven days","except in the dose of 10 mg P/kg, which obviously has no significant value"
same,"inhibition of the bone reabsorption, in words and in comparison with other well-known diphosphonates","bone reabsorption; rat, in vivo",powerful inhibitor of the bone reabsorption in a degree superior or similar to that of other well-known diphosphonates
same,LD50,"[1]; ip, I.p.",650 mg/kg
same,LD50,"[1]; iv, I.v.",85 mg/kg
same,LD50,"[1]; po, OS (orally)",> 2000 mg/kg
same,degree of toxicity (in words),Swiss mice; every route of administration,low degree of toxicity in every route of administration
same,tolerance in comparison with the analog ADP,"Swiss mice; mouse, in vivo",superior tolerance
same,plasmatic PGE2,"[3]; 10 mg daily, one individual with Paget's disease",has not caused any change in this parameter
same,osteolysis and plasmatic alkaline phosphatase (both parameters),"[3]; 40 mg daily, one individual",a reduction of both parameters
same,alkaline phosphatasemia,"[3]; 40 mg daily, one individual (Paget's disease in active phase)",clear and rapid decrease of the alkaline phosphatasemia levels
same,urinary excretion of inorganic calcium and inorganic phosphates,[3]; 5-10 mg daily,have not modified to a significant degree
same,alkaline phosphatasemia / indexes of osteoblastic activity,[3]; 5-10-20 mg daily,have not been modified; also recorded: have not caused significant modifications in the plasmatic alkaline phosphatase
same,osteolysis,[3]; 5-10-20 mg daily,blocking osteolysis
same,"indexes of parathyroid activity (plasmatic immunoreactive PTH, cyclic nephrogenic AMP)",[3]; 5-10-20-40 mg daily,have not caused significant modification changes in the indexes of parathyroid activity
same,plasmatic PGE2,"[3]; 20-40 mg daily, three individuals with Paget's disease and high prior levels",substantial and rapid decrease in the plasmatic PGE2 in all three individuals
same,urinary excretion of inorganic calcium and inorganic phosphates,"[3]; 20-40 mg daily, obvious particularly in phosphaturia",significant increases of these two parameters
same,urinary excretion of hydroxyproline,[3]; all the individuals treated,reduced to a significant extent in all the individuals treated; also recorded: prompt and progressive reduction of the urinary excretion of hydroxyproline
same,calcium and phosphate levels of the plasma,[3]; every dosage used,has not caused variations worth mentioning
same,hyperphosphatemia,"[3]; human, in vivo",phases of hyperphosphatemia have not been observed
same,calcemia,[3]; very short periods of some treatments,a low degree of calciemic contents have been noted
same,"hydroxyprolinuria, dependence on dosage",[3]; with respect to the values prior to treatment,"so much greater with respect to the values prior to treatment, the higher the dosage"
same,tolerability,"[4]; 5-40 mg daily intravenous, 15-30 days",well tolerated; also recorded: tolerated in all cases
same,variations in the parameters of tolerability,"[4]; hemochromocytometric examination, proteinemia, glycemia, azotemia, creatininemia, transaminasemia, immunoglobulin",has not caused significant variations in the parameters of tolerability
same,increase of the body temperature or variation in the hematic crasia,"[4]; human, in vivo","in none of the individuals treated, there has been observed an increase of the body temperature or any variation in the hematic crasia"
same,modifications of the hematic crasia and hepatic and renal functions,"[4]; human, in vivo",nor have substantial modifications of the hematic crasia and hepatic and renal functions been noted
same,side effects,"[4]; human, in vivo",no side effects of any significance have been noted; also recorded: no undesirable side effects have been noted
same,solubility in HCl,Solubility; HCl of average concentration,dissolves in HCl of average concentration
same,solubility in water,Solubility; water,little soluble in water
same,solubility with NaOH,Solubility; water with addition of one equivalent of NaOH,dissolves completely by addition of one equivalent of NaOH
"O=P([O-])([O-])C(Cl)(Cl)P(=O)(O)O.[Na+].[Na+] [Cl2 MDP, Dichloromethylenediphosphonic acid disodium salt]",LD50,"[1]; ip, I.p.",780 mg/kg
same,LD50,"[1]; iv, I.v.",75 mg/kg
same,LD50,"[1]; po, OS (orally)",> 2000 mg/kg
O=P(O)(O)OP(=O)(O)O [pyrophosphate],precipitation of calcium phosphate,[5],capable of inhibiting the precipitation of calcium phosphate
same,hydrolysis on administration,[6],rapid hydrolysis
"CC(O)(P(=O)(O)O)P(=O)(O)O [EHDP, Ethane-1-hydroxy-1,1-diphosphonic acid disodium salt]",LD50,"[1]; ip, I.p.",250 mg/kg
same,LD50,"[1]; po, OS (orally)",2000 mg/kg
same,LD50,Toxicity (DL50) in rats,35 mg/kg
